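Five concentrations, 48 hours, 96-well plates. GI50 is the concentration that inhibits growth by half.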 The source made the active and inactive calls. Cut-off read from the data, not from the text of the source: active = GI50 up to about 1.1 µM and inactive = higher.
What was measured:
Experiment in all cases: DTP human tumour cell line panel, 48 h
[1] = system: SNB-19
[2] = system: IGROV-1
[3] = system: NCI/ADR-RES
[4] = system: HOP-62
[5] = system: MOLT-4
[6] = system: HCT-15
[7] = system: OVCAR-8
[8] = system: SK-MEL-28
[9] = system: HCC 2998
[10] = system: HOP-92
[11] = system: SF-268
[12] = system: A549
[13] = system: SNB-75
[14] = system: MDA-MB-435
[15] = system: A498
[16] = system: SK-OV-3
[17] = system: NCI-H226
[18] = system: RXF 393
[19] = system: SF-295
[20] = system: SK-MEL-5

Measured: GI50

Nc1nc(Cl)cc(NC23CC4CC(CC(C4)C2)C3)n1
40.6 µM: [6]
inactive: [1] > 100 µM | [2] 57.3 µM | [3] 42.9 µM | [4] > 100 µM | [5] > 100 µM | [7] 90.6 µM | [8] > 100 µM | [9] > 100 µM | [10] > 100 µM | [11] 47.1 µM | [12] 98.6 µM | [13] 26.2 µM | [14] > 100 µM | [15] > 100 µM | [16] > 100 µM | [17] 76.2 µM | [18] > 100 µM | [19] 85.5 µM

C(=N\c1ccc(-c2nc3ccccc3o2)cc1)/c1ccco1
inactive: [20] 30.8 µM | [1] > 100 µM | [2] 49.4 µM | [3] 61.7 µM | [5] 29 µM | [7] > 100 µM | [8] > 100 µM | [10] 30.8 µM | [13] 49.1 µM | [14] 75.9 µM | [15] 37.7 µM | [18] 39.7 µM
49.3 µM: [6]

COc1ccc(N2C(=O)/C(=C\c3cc(OC)c(OC)c(OC)c3)SC2c2ccccc2)cc1 (stereo not drawn)
58.2 µM: [6]
inactive: [20] 23.7 µM | [1] > 100 µM | [3] 34.8 µM | [4] > 100 µM | [5] > 100 µM | [7] 95.9 µM | [8] > 100 µM | [9] > 100 µM | [10] > 100 µM | [11] > 100 µM | [12] > 100 µM | [14] 27.4 µM | [15] > 100 µM | [16] 81.7 µM | [17] > 100 µM | [18] 42.1 µM | [19] 50.5 µM

CC1=CN(c2ccccc2)S2=C1c1sc3c(c1N2c1ccc(Br)cc1)CCCC3 (stereo not drawn)
> 100 µM: [6]
inactive: [20] > 100 µM | [1] > 100 µM | [2] > 100 µM | [3] > 100 µM | [4] > 100 µM | [5] > 100 µM | [7] > 100 µM | [8] > 100 µM | [9] > 100 µM | [10] > 100 µM | [11] > 100 µM | [12] > 100 µM | [14] > 100 µM | [15] > 100 µM | [16] > 100 µM | [17] > 100 µM | [18] > 100 µM | [19] > 100 µM

OCCCCn1cc(Cn2ncc3c(NCc4ccccc4)ncnc32)nn1
inactive: [20] > 100 µM | [1] > 100 µM | [2] > 100 µM | [3] > 100 µM | [4] > 100 µM | [5] 53.1 µM | [7] > 100 µM | [8] > 100 µM | [9] > 100 µM | [10] > 100 µM | [11] > 100 µM | [12] > 100 µM | [14] 33.7 µM | [15] > 100 µM | [16] > 100 µM | [17] > 100 µM | [18] > 100 µM | [19] > 100 µM
> 100 µM: [6]

CCOC(=O)C(C(=O)OCC)C(=S)NC1OC(COC(C)=O)C(OC(C)=O)C(OC(C)=O)C1OC(C)=O (stereo not drawn)
> 100 µM: [6]
inactive: [20] > 100 µM | [1] > 100 µM | [2] > 100 µM | [3] > 100 µM | [4] > 100 µM | [5] > 100 µM | [7] > 100 µM | [8] > 100 µM | [9] > 100 µM | [10] > 100 µM | [11] > 100 µM | [12] > 100 µM | [14] > 100 µM | [15] > 100 µM | [16] > 100 µM | [17] > 100 µM | [18] > 100 µM | [19] > 100 µM

N#CCCSC(=S)C1CCCC1=N (stereo not drawn)
inactive: [20] > 100 µM | [1] > 100 µM | [2] > 100 µM | [3] > 100 µM | [4] > 100 µM | [5] > 100 µM | [7] > 100 µM | [8] > 100 µM | [10] > 100 µM | [11] > 100 µM | [12] > 100 µM | [13] 3.88 µM | [14] > 100 µM | [15] > 100 µM | [16] > 100 µM | [17] > 100 µM | [18] 42.4 µM | [19] > 100 µM
> 100 µM: [6]

C/C(=C/CC[C@]1(CO)CC[C@]2(C)[C@H](CC[C@@H]3[C@@]4(C)CC[C@H](OC5OC(CO)C(O)C(O)C5OC5OC(CO)C(O)C(O)C5O)C(C)(C)[C@@H]4CC[C@]32C)[C@H]1O)CO (stereo partly drawn)
> 100 µM: [6]
inactive: [20] > 100 µM | [1] > 100 µM | [2] > 100 µM | [3] > 100 µM | [4] > 100 µM | [5] > 100 µM | [7] > 100 µM | [8] > 100 µM | [10] > 100 µM | [11] > 100 µM | [12] > 100 µM | [13] > 100 µM | [14] > 100 µM | [15] > 100 µM | [16] > 100 µM | [17] > 100 µM | [18] > 100 µM | [19] > 100 µM

Cc1cc2c(cc1Cl)Sc1n[nH]c(=O)n1S2(=O)=O
> 100 µM: [6]
inactive: [20] 35.8 µM | [1] > 100 µM | [2] > 100 µM | [3] > 100 µM | [4] > 100 µM | [5] > 100 µM | [7] > 100 µM | [8] > 100 µM | [9] > 100 µM | [10] 54.3 µM | [11] > 100 µM | [12] > 100 µM | [13] > 100 µM | [14] > 100 µM | [15] 19.4 µM | [16] > 100 µM | [17] > 100 µM | [19] > 100 µM

Cc1ccc(SCC(CSCCO)OCn2cnc3c2N=C(N)NC32OCCO2)cc1 (stereo not drawn)
> 100 µM: [6]
inactive: [20] > 100 µM | [1] > 100 µM | [2] > 100 µM | [3] > 100 µM | [4] > 100 µM | [5] > 100 µM | [7] > 100 µM | [8] > 100 µM | [9] > 100 µM | [10] > 100 µM | [11] > 100 µM | [12] > 100 µM | [13] > 100 µM | [14] > 100 µM | [15] > 100 µM | [16] > 100 µM | [18] > 100 µM | [19] > 100 µM

C=C1N(S(=O)(=O)c2ccc(C)cc2)C(=O)OCC12CCCC2
inactive: [20] 25.4 µM | [1] > 100 µM | [2] 31.3 µM | [3] 81.7 µM | [5] 77.4 µM | [7] > 100 µM | [8] > 100 µM | [9] > 100 µM | [10] > 100 µM | [12] > 100 µM | [13] 14.1 µM | [14] > 100 µM | [15] > 100 µM | [16] 41.4 µM | [17] > 100 µM | [18] > 100 µM | [19] > 100 µM
94 µM: [6]

N=C(N)Nc1ccc(CC(N)C(=O)O)cc1 (stereo not drawn)
inactive: [20] > 12.5 µM | [2] > 12.5 µM | [3] > 12.5 µM | [4] > 12.5 µM | [5] > 12.5 µM | [7] > 12.5 µM | [8] > 12.5 µM | [9] > 12.5 µM | [10] > 12.5 µM | [11] > 12.5 µM | [12] > 12.5 µM | [13] > 12.5 µM | [14] > 12.5 µM | [15] > 12.5 µM | [16] > 12.5 µM | [17] > 12.5 µM | [18] > 12.5 µM | [19] > 12.5 µM
> 12.5 µM: [6]

CN(C)c1nc(Cl)c2c(-c3ccccc3)c(-c3ccccc3)oc2n1
31.6 µM: [6]
inactive: [20] 41.7 µM | [1] > 100 µM | [2] 80.7 µM | [3] 82.4 µM | [5] 32.2 µM | [7] > 100 µM | [8] > 100 µM | [9] 64.6 µM | [10] 81.5 µM | [11] 36 µM | [12] 98.2 µM | [13] 35.8 µM | [14] > 100 µM | [15] > 100 µM | [16] 58.3 µM | [17] > 100 µM | [18] 19.4 µM | [19] 58.1 µM

C[n+]1ccccc1/C1=c2\cc/c([nH]2)=C(\c2cccc[n+]2C)C2=N/C(=C(/c3cccc[n+]3C)C3C=CC(N3)/C(c3cccc[n+]3C)=C3/C=CC1=N3)C=C2
> 100 µM: [6]
inactive: [20] 71.4 µM | [1] > 100 µM | [2] 92.9 µM | [3] > 100 µM | [4] > 100 µM | [5] 58.1 µM | [7] > 100 µM | [8] > 100 µM | [9] > 100 µM | [10] 90.6 µM | [11] > 100 µM | [12] > 100 µM | [14] 57 µM | [15] > 100 µM | [16] > 100 µM | [17] > 100 µM | [18] > 100 µM | [19] > 100 µM

c1ccc2c(c1)CCN1CCc3c([nH]c4ccccc34)C21 (stereo not drawn)
36.9 µM: [6]
inactive: [20] 15.1 µM | [1] 67.5 µM | [2] 29.4 µM | [3] 22.1 µM | [4] 36 µM | [5] 24.5 µM | [7] 31.8 µM | [8] 19.1 µM | [9] 17.2 µM | [10] 22.2 µM | [11] 30.8 µM | [12] 37.1 µM | [13] 24.9 µM | [14] 26.7 µM | [15] 22.9 µM | [16] 47 µM | [17] 41.7 µM | [18] 21.5 µM | [19] 20 µM

Source: ChEMBL document CHEMBL1201862, “PubChem BioAssay data set” (2004)
